Data published in US10041115B2, “3′-OH unblocked, fast photocleavable terminating nucleotides and methods for nucleic acid sequencing” (LASERGEN, INC., priority 2011, dated 2018).

Test: Photochemical cleavage assays of incorporated nucleotide analogs (365 nm UV light, DT50)
Type: physicochemical
Conditions: for DT50 in 1 mM NaN3, 50 mM DTT / DT50 in 1 mM NaN3, No DTT: 365 nm UV, 0.70 W/cm^2; for DT50 value of ds1 isomer compared with the parent dA.I analog: ds1 isomers of the α-isopropyl C^7-HOMedA set; for faster photochemical cleavage rates of ds2 isomers compared with their ds1 counterparts, factor: ds2 vs ds1 isomer of the same analog; for DT50 values: UV photochemical cleavage experiments
Experimental: As used herein, the term “DT50” refers to the amount of time required to cleavage 50% of the base analog incorporated in the primer-template complex.
To compare the rates of photochemical cleavage between the nucleotide analogs described here, a protocol was developed to deliver a daily light intensity output of 0.70±0.01 W/cm^2 to samples, see below.
The power supply was turned on for about 30 min prior to that of the lamp and recirculation bath as described by the manufacturer. The IR liquid filter was cooled to 9° C. Light intensity was determined using a model PM100 power meter (Thorlabs), a 1000 μm pinhole (Edmund Optics), a modified 0.5 mL Eppendorf tube cut in half, and a 3-axis manual translation stage (Newport), see FIG. 5. The half cut Eppendorf tube was positioned in front of the pinhole and power meter detector head to account for the geometric shape distortion of the light as it passes through a reaction solution. The translation stage was then used to align the tube/pinhole/detector device with the highest intensity from the arc beam.
To stabilize its output, the lamp was left on for one hour prior to intensity measurements. Thereafter, the measured power was adjusted by increasing the current from the power supply. In order to achieve intensity (I) of 0.70 W/cm^2, the measured power (P) was adjusted to ˜5.5 mW, according to the equation:
[formula] where r is the radius of pinhole.
The beam was then focused by placing an 0.5 mL Eppendorf tube into the sample holder, the tube of which was modified with an internal alignment card to provide reference lines for volume heights of 10 μL and 20 μL, see FIG. 5. The reference lines enabled the beam to be centered for a given reaction volume. Beam alignment was further verified by observing the mercury arc image of the lamp produced by the rear reflector. A second alignment card was placed into the rotating sample holder to view the image, which when properly aligned using the reflector would produce an inverted arc image on the arc gap itself. This step ensured that arc hotspots were not superimposed, which could cause overheating while maintaining a power output of ˜5.5 mW. The speed of the rotating sample holder was adjusted within a range of 1,200-1,350 rpm using a Nova-Strobe DA Plus stroboscope (Monarch Instrument) by adjusting the motor's torque with an adjustment screw.
Photochemical cleavage assays: Nucleotide analogs were incorporated using 10 μL reactions, as described for the PEP assays, at a final concentration of 100 nM. […] OligoTemplate-2, oligoTemplate-5, and oligoTemplate-4 each hybridized with BODIPY-FL labeled primer-1 were used for C^7-HOMedA, C^7-HOMedG, and HOMedU analogs, respectively. OligoTemplate-8 hybridized with BODIPY-FL labeled primer-3 was used to assay HOMedC analogs. Incorporated reactions were quenched with either 1 mM sodium azide solution; 1 mM sodium azide, 50 mM DTT solution; or reagents C-G (see key in FIG. 4), exposed to 365 nm ultraviolet (UV) light for various time points using our UV deprotector, and then placed on ice.

[1] = Table 1, C^7-HOMedA analogs, average ± 1SD, triplicate
[2] = Table 2, C^7-HOMedG analogs, average ± 1SD, triplicate
[3] = α-tert-butyl C^7-HOMedG analogs, ds1 isomers
[4] = Table 3, reversible terminators
[5] = Table 3, reversible terminators, [a] transient product considered as cleaved product

SMILES | DT50 in 1 mM NaN3, 50 mM DTT [1] [s] | DT50 in 1 mM NaN3, No DTT [1] [s] | faster photochemical cleavage rates of ds2 isomers compared with their ds1 counterparts, factor [×] | DT50 in 1 mM NaN3, 50 mM DTT [2] [s] | DT50 in 1 mM NaN3, No DTT [2] [s] | other results
CC(C)C(OCc1cn([C@H]2C[C@H](O)[C@@H](COP(=O)(O)OP(=O)(O)OP(=O)(O)O)O2)c2ncnc(N)c12)c1ccccc1[N+](=O)[O-] (single isomer, unassigned) [dA.III.a ds1, 7-[1-(2-nitrophenyl)-2-methyl-propyloxy]methyl-7-deaza-2′-deoxyadenosine-5′-triphosphate] | 4.4 ± 0.2 | 4.5 ± 0.2 | – | – | – | DT50 value of ds1 isomer compared with the parent dA.I analog: higher
CC(C)C(OCc1cn([C@H]2C[C@H](O)[C@@H](COP(=O)(O)OP(=O)(O)OP(=O)(O)O)O2)c2ncnc(N)c12)c1ccccc1[N+](=O)[O-] (single isomer, unassigned) [dA.III.a ds2, 7-[1-(2-nitrophenyl)-2-methyl-propyloxy]methyl-7-deaza-2′-deoxyadenosine-5′-triphosphate] | 2.1 ± 0.1 | 2.2 ± 0.1 | 2.0 | – | – | –
COc1ccc(C(OCc2cn([C@H]3C[C@H](O)[C@@H](COP(=O)(O)OP(=O)(O)OP(=O)(O)O)O3)c3ncnc(N)c23)C(C)C)c([N+](=O)[O-])c1 (single isomer, unassigned) [dA.III.b ds1, 7-[1-(4-methoxy-2-nitrophenyl)-2-methyl-propyloxy]methyl-7-deaza-2′-deoxyadenosine-5′-triphosphate] | 6.1 ± 0.4 | 7.0 ± 0.3 | – | – | – | DT50 value of ds1 isomer compared with the parent dA.I analog: higher
COc1ccc(C(OCc2cn([C@H]3C[C@H](O)[C@@H](COP(=O)(O)OP(=O)(O)OP(=O)(O)O)O3)c3ncnc(N)c23)C(C)C)c([N+](=O)[O-])c1 (single isomer, unassigned) [dA.III.b ds2, 7-[1-(4-methoxy-2-nitrophenyl)-2-methyl-propyloxy]methyl-7-deaza-2′-deoxyadenosine-5′-triphosphate] | 1.0 ± 0.1 | 1.1 ± 0.1 | 6.4 | – | – | –
CC(C)C(OCc1cn([C@H]2C[C@H](O)[C@@H](COP(=O)(O)OP(=O)(O)OP(=O)(O)O)O2)c2ncnc(N)c12)c1c([N+](=O)[O-])cccc1[N+](=O)[O-] (single isomer, unassigned) [dA.III.c ds1, 7-[1-(2,6-dinitrophenyl)-2-methyl-propyloxy]methyl-7-deaza-2′-deoxyadenosine-5′-triphosphate] | 3.0 ± 0.2 | 3.4 ± 0.2 | – | – | – | DT50 value of ds1 isomer compared with the parent dA.I analog: similar
CC(C)C(OCc1cn([C@H]2C[C@H](O)[C@@H](COP(=O)(O)OP(=O)(O)OP(=O)(O)O)O2)c2ncnc(N)c12)c1c([N+](=O)[O-])cccc1[N+](=O)[O-] (single isomer, unassigned) [dA.III.c ds2, 7-[1-(2,6-dinitrophenyl)-2-methyl-propyloxy]methyl-7-deaza-2′-deoxyadenosine-5′-triphosphate] | 2.5 ± 0.1 | 2.8 ± 0.2 | 1.2 | – | – | –
CC(C)(C)C(OCc1cn([C@H]2C[C@H](O)[C@@H](COP(=O)(O)OP(=O)(O)OP(=O)(O)O)O2)c2nc(N)[nH]c(=O)c12)c1ccccc1[N+](=O)[O-] (single isomer, unassigned) [dG.V.a ds2, 7-[1-(2-nitrophenyl)-2,2-dimethyl-propyloxy]methyl-7-deaza-2′-deoxyguanosine-5′-triphosphate] | – | – | 3.1 | 3.5 ± 0.3 | 3.6 ± 0.3 | –
COc1ccc(C(OCc2cn([C@H]3C[C@H](O)[C@@H](COP(=O)(O)OP(=O)(O)OP(=O)(O)O)O3)c3nc(N)[nH]c(=O)c23)C(C)(C)C)c([N+](=O)[O-])c1 (single isomer, unassigned) [dG.V.b ds1, 7-[1-(4-methoxy-2-nitrophenyl)-2,2-dimethyl-propyloxy]methyl-7-deaza-2′-deoxyguanosine-5′-triphosphate] | – | – | – | 4.6 ± 0.3 | 4.9 ± 0.3 | –
COc1ccc(C(OCc2cn([C@H]3C[C@H](O)[C@@H](COP(=O)(O)OP(=O)(O)OP(=O)(O)O)O3)c3nc(N)[nH]c(=O)c23)C(C)(C)C)c([N+](=O)[O-])c1 (single isomer, unassigned) [dG.V.b ds2, 7-[1-(4-methoxy-2-nitrophenyl)-2,2-dimethyl-propyloxy]methyl-7-deaza-2′-deoxyguanosine-5′-triphosphate] | – | – | 4.5 | 1.3 ± 0.2 | 1.1 ± 0.1 | –
COc1ccc([N+](=O)[O-])c(C(OCc2cn([C@H]3C[C@H](O)[C@@H](COP(=O)(O)OP(=O)(O)OP(=O)(O)O)O3)c3nc(N)[nH]c(=O)c23)C(C)(C)C)c1 (single isomer, unassigned) [dG.V.c ds2, 7-[1-(5-methoxy-2-nitrophenyl)-2,2-dimethyl-propyloxy]methyl-7-deaza-2′-deoxyguanosine-5′-triphosphate] | – | – | 4.4 | 0.8 ± 0.1 | 0.8 ± 0.1 | DT50 values: 0.8 s; rate increases, dG.V.c compared with dG.V.a (same isomer (ds1 or ds2) of dG.V.c vs dG.V.a): 4.4 ×; faster photochemical cleavage rates compared with the corresponding 4-OMe isomers (α-tert-butyl C^7-HOMedG analogs, 5-OMe vs 4-OMe): 1.4 × fold
COc1cc(C(OCc2cn([C@H]3C[C@H](O)[C@@H](COP(=O)(O)OP(=O)(O)OP(=O)(O)O)O3)c3nc(N)[nH]c(=O)c23)C(C)(C)C)c([N+](=O)[O-])cc1OC (single isomer, unassigned) [dG.V.d ds1, 7-[1-(4,5-dimethoxy-2-nitrophenyl)-2,2-dimethyl-propyloxy]methyl-7-deaza-2′-deoxyguanosine-5′-triphosphate] | – | – | – | 2.3 ± 0.2 | 2.4 ± 0.1 | faster cleavage rates compared with mono-substituted 4-OMe isomer [3]: 2.0 ×; faster cleavage rates compared with mono-substituted 5-OMe isomer [3]: 1.5 ×
COc1cc(C(OCc2cn([C@H]3C[C@H](O)[C@@H](COP(=O)(O)OP(=O)(O)OP(=O)(O)O)O3)c3nc(N)[nH]c(=O)c23)C(C)(C)C)c([N+](=O)[O-])cc1OC (single isomer, unassigned) [dG.V.d ds2, 7-[1-(4,5-dimethoxy-2-nitrophenyl)-2,2-dimethyl-propyloxy]methyl-7-deaza-2′-deoxyguanosine-5′-triphosphate] | – | – | 3.0 | 0.8 ± 0.1 | 0.8 ± 0.1 | DT50 values: 0.8 s
Nc1ncnc2c1c(COCc1ccccc1[N+](=O)[O-])cn2[C@H]1C[C@H](O)[C@@H](COP(=O)(O)OP(=O)(O)OP(=O)(O)O)O1 [dA.I, 7-(2-nitro-benzyloxy)methyl-7-deaza-2′-deoxyadenosine-5′-triphosphate] | 3.5 ± 0.1 | 3.6 ± 0.1 | – | – | – | DT50 in 1 mM NaN3, 50 mM DTT [4]: 3.5 ± 0.1 s; DT50 in 1 mM NaN3, No DTT [5]: 3.6 ± 0.1 s
CC(C)(C)[C@H](OCc1cn([C@H]2C[C@H](O)[C@@H](COP(=O)(O)OP(=O)(O)OP(=O)(O)O)O2)c2ncnc(N)c12)c1ccccc1[N+](=O)[O-] [dA.V, 7-[(S)-1-(2-nitrophenyl)-2,2-dimethyl-propyloxy]methyl-7-deaza-2′-deoxyadenosine-5′-triphosphate] | – | – | – | – | – | DT50 in 1 mM NaN3, 50 mM DTT [4]: 2.0 ± 0.2 s; DT50 in 1 mM NaN3, No DTT [5]: 2.1 ± 0.1 s
